How the values were obtained:
E. coli RGN238 [1] = experiment: microbe, parasite or virus in culture; assay type: cell-based; details: Escherichia coli, RGN238, read-out: MIC compounds of the invention alone
Procedure: Log phase bacterial suspensions were adjusted to a final density of 5×10^5 cfu/mL in cation-adjusted Mueller-Hinton broth (Becton-Dickinson) and added to each well (98 μL). Microplates were incubated for 16-20 h at 35° C. in ambient air. The MIC of the compounds was defined as the lowest concentration of said compounds that prevented bacterial growth as read by visual inspection.

E. cloacae 260508 = experiment: MIC of ceftazidime (CAZ) at fixed concentration of compound (synergy), broth microdilution; assay type: cell-based; details: MIC of ceftazidime with compound fixed at 4 μg/mL; strain 260508 (E. cloacae)
Procedure, shortened: (§1)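 Visual end point: lowest concentration that blocked growth. Conditions: cation-adjusted Mueller-Hinton broth, 5×10^5 cfu/mL final inoculum of log-phase bacteria, 16-20 h, 35° C, ambient atmosphere.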

E. cloacae P99 = experiment: as above; assay type: cell-based; details: MIC of ceftazidime with compound fixed at 4 μg/mL; strain P99 (E. cloacae)
Procedure, shortened: as §1

E. cloacae UFR51 = experiment: as above; assay type: cell-based; details: MIC of ceftazidime with compound fixed at 4 μg/mL; strain UFR51 (E. cloacae)
Procedure, shortened: as §1

E. cloacae UFR70 = experiment: as above; assay type: cell-based; details: MIC of ceftazidime with compound fixed at 4 μg/mL; strain UFR70 (E. cloacae)
Procedure, shortened: as §1

E. cloacae UFR85 = experiment: as above; assay type: cell-based; details: MIC of ceftazidime with compound fixed at 4 μg/mL; strain UFR85 (E. cloacae)
Procedure, shortened: as §1

E. coli 131119 = experiment: as above; assay type: cell-based; details: MIC of ceftazidime with compound fixed at 4 μg/mL; strain 131119 (E. coli)
Procedure, shortened: as §1

E. coli 190317 = experiment: as above; assay type: cell-based; details: MIC of ceftazidime with compound fixed at 4 μg/mL; strain 190317 (E. coli)
Procedure, shortened: as §1

E. coli RGN238 [2] = experiment: as above; assay type: cell-based; details: MIC of ceftazidime with compound fixed at 4 μg/mL; strain RGN238 (E. coli)
Procedure, shortened: as §1

E. coli UFR18 = experiment: as above; assay type: cell-based; details: MIC of ceftazidime with compound fixed at 4 μg/mL; strain UFR18 (E. coli)
Procedure, shortened: as §1

E. coli UFR39 = experiment: as above; assay type: cell-based; details: MIC of ceftazidime with compound fixed at 4 μg/mL; strain UFR39 (E. coli)
Procedure, shortened: as §1

E. coli UFR41 = experiment: as above; assay type: cell-based; details: MIC of ceftazidime with compound fixed at 4 μg/mL; strain UFR41 (E. coli)
Procedure, shortened: as §1

E. coli UFR61O = experiment: as above; assay type: cell-based; details: MIC of ceftazidime with compound fixed at 4 μg/mL; strain UFR61O (E. coli)
Procedure, shortened: as §1

E. coli UFR74 = experiment: as above; assay type: cell-based; details: MIC of ceftazidime with compound fixed at 4 μg/mL; strain UFR74 (E. coli)
Procedure, shortened: as §1

K. oxytoca UFR21 = experiment: as above; assay type: cell-based; details: MIC of ceftazidime with compound fixed at 4 μg/mL; strain UFR21 (K. oxytoca)
Procedure, shortened: as §1

K. pneumoniae 160143 = experiment: as above; assay type: cell-based; details: MIC of ceftazidime with compound fixed at 4 μg/mL; strain 160143 (K. pneumoniae)
Procedure, shortened: as §1

K. pneumoniae 200047 = experiment: as above; assay type: cell-based; details: MIC of ceftazidime with compound fixed at 4 μg/mL; strain 200047 (K. pneumoniae)
Procedure, shortened: as §1

K. pneumoniae 6299 = experiment: as above; assay type: cell-based; details: MIC of ceftazidime with compound fixed at 4 μg/mL; strain 6299 (K. pneumoniae)
Procedure, shortened: as §1

K. pneumoniae BAA-1898 = experiment: as above; assay type: cell-based; details: MIC of ceftazidime with compound fixed at 4 μg/mL; strain BAA-1898 (K. pneumoniae)
Procedure, shortened: as §1

K. pneumoniae UFR24 = experiment: as above; assay type: cell-based; details: MIC of ceftazidime with compound fixed at 4 μg/mL; strain UFR24 (K. pneumoniae)
Procedure, shortened: as §1

K. pneumoniae UFR68 = experiment: as above; assay type: cell-based; details: MIC of ceftazidime with compound fixed at 4 μg/mL; strain UFR68 (K. pneumoniae)
Procedure, shortened: as §1

P. aeruginosa CIP107051 = experiment: as above; assay type: cell-based; details: MIC of ceftazidime with compound fixed at 4 μg/mL; strain CIP107051 (P. aeruginosa)
Procedure, shortened: as §1

CMY-37 = CMY-37 (Citrobacter freundii, UniProt P05193); details: read-out: IC50 β-lactamase CMY-37
OXA-15 = OXA-15 (Pseudomonas aeruginosa, UniProt Q51574); experiment: biochemical
TEM-1 = TEM-1 (Escherichia coli, UniProt P62593)
SHV-1 = SHV-1 (Klebsiella pneumoniae, UniProt P0AD64)
CTX-M-15 = CTX-M-15 (Escherichia coli, UniProt Q9EXV5)
KPC-2 = KPC-2 (Klebsiella pneumoniae, UniProt Q9F663)
OXA-1 = OXA-1 (Escherichia coli, UniProt P13661)
OXA-48 = OXA-48 (Klebsiella pneumoniae, UniProt Q6XEC0)

With O=C1N2CC(n3ccsc3=O)=CC(C2)N1OS(=O)(=O)[O-].[Na+] (stereo not drawn) [Example 1, Sodium [7-oxo-3-(2-oxo-thiazol-3-yl)-1,6-diaza-bicyclo[3.2.1]oct-3-en-6-yl]sulfate] the MIC (E. coli RGN238 [1]) was 8 µg/mL, the “MIC combination of CAZ and compounds of the invention at 4 μg/mL” value (from here on “MIC combination”) (E. cloacae 260508) was <0.25 and the “MIC combination” value (E. cloacae P99) was <0.25. The “MIC combination” value (E. cloacae UFR51) was <0.25, the “MIC combination” value (E. cloacae UFR70) was ≤0.25 and the “MIC combination” value (E. cloacae UFR85) was <0.25. The “MIC combination” value (E. coli 131119) was <0.25, the “MIC combination” value (E. coli 190317) was <0.25 and the “MIC combination” value (E. coli RGN238 [2]) was <0.25. The “MIC combination” value (E. coli UFR18) was <0.25, the “MIC combination” value (E. coli UFR39) was <0.25 and the “MIC combination” value (E. coli UFR41) was 0.5. For the same molecule, the “MIC combination” value (E. coli UFR61O) was ≤0.25, the “MIC combination” value (E. coli UFR74) was ≤0.25 and the “MIC combination” value (K. oxytoca UFR21) was 0.5. The “MIC combination” value (K. pneumoniae 160143) was ≤0.25, the “MIC combination” value (K. pneumoniae 200047) was ≤0.25 and the “MIC combination” value (K. pneumoniae 6299) was ≤0.25. For the same molecule, the “MIC combination” value (K. pneumoniae BAA-1898) was ≤0.25, the “MIC combination” value (K. pneumoniae UFR24) was 0.5 and the “MIC combination” value (K. pneumoniae UFR68) was <0.25. The “MIC combination” value (P. aeruginosa CIP107051) was 8, the IC50 (CMY-37) was 33 nM and the IC50 (OXA-15) was 92 nM. The IC50 (TEM-1) was 0.25 nM, the IC50 (SHV-1) was 1.5 nM and the IC50 (CTX-M-15) was 0.55 nM. It also gave an IC50 (KPC-2) of 13 nM, an IC50 (OXA-1) of 120 nM and an IC50 (OXA-48) of 1.9 nM.

— patent publication US10722520B2, “Heterocyclic compounds and their use in preventing or treating bacterial infections” (MUTABILIS, priority 2016, dated 2020)
